Results published in patent publication US11787762B2, “Tetralin and tetrahydroquinoline compounds as inhibitors of HIF-2alpha” (ARCUS BIOSCIENCES, INC., priority 2020, dated 2023).
pIC50: −log10 of the molar value.

Target: T1, HIF-2α (Homo sapiens, UniProt Q99814)
T1 construct: host or cells: 786-O cells stably transduced with Cignal Lenti HIF Luc Reporter (only the reporter was introduced, not HIF-2α)
Assay: HIF-2α luciferase reporter assay in HIF-Luc-786-O cells
Format: cell-based
Protocol: Generation of HIF-2α Luciferase 786-O Cell Line:
Stable cell lines were generated by transducing 786-O cells (ATCC, CRL-1932) with Cignal Lenti HIF Luc Reporter lentivirus (CLS-007 L, Qiagen) according to the manufacturer's guidelines. In brief, 0.3×10^6 786-0 cells were transduced with lentivirus at a Multiplicity of Infection (MOI) of 25 for 24 hours. After transduction, cells were replenished with fresh RPMI 1640 Medium (Cat. No. 11875085, Thermo Fisher,) supplemented with 10% FBS (Cat. No. A3160502, Gibco), 2 mM GlutaMax (Cat. No. 35050-061, Invitrogen) and 100 units of penicillin and 100 μg of streptomycin/mL (Cat. No 15070063, Thermo Fisher) for another 24 hours. Antibiotic selection was performed in cell media containing 4 μg/mL of Puromycin. After 7 days of antibiotic selection, stable pools of surviving cells were expanded and used in a luciferase reporter assay.
HIF-2α Luciferase Reporter Assay:
On day one, 20 uL of HIF-Luc-786-0 cells in OptiMem (Cat. No. 31985088, Thermo Fisher) were seeded into each well of a 384 well white opaque plate (Corning 3570) and incubated at 37° C. and 5% CO2. Twenty microliters of 2× test compounds in OptiMem were added to cells after 4 hours of incubation. Final assay conditions comprised 20,000 cells per well in 1% DMSO with test compound concentrations ranging from 50 uM to 0 uM. After 20 hours incubation at 37° C. and 5% CO2, luciferase activity was determined using ONE-Glo Luciferase Assay Reagent (E6110, Promega) following the manufacture's recommended procedure. Briefly, 40 uL of ONE-Glo luciferase reagents were added to each well and luciferase signals were measured using an Envision 2102 Multilabel Reader. Percentage maximum activity in each test well was calculated based on DMSO (maximum activity) and no cell control wells (baseline activity). The IC50 values of the test compounds were determined from compound dose response curves fitted using a standard four parameter fit equation.

T1 sequence (Q99814 whole entry): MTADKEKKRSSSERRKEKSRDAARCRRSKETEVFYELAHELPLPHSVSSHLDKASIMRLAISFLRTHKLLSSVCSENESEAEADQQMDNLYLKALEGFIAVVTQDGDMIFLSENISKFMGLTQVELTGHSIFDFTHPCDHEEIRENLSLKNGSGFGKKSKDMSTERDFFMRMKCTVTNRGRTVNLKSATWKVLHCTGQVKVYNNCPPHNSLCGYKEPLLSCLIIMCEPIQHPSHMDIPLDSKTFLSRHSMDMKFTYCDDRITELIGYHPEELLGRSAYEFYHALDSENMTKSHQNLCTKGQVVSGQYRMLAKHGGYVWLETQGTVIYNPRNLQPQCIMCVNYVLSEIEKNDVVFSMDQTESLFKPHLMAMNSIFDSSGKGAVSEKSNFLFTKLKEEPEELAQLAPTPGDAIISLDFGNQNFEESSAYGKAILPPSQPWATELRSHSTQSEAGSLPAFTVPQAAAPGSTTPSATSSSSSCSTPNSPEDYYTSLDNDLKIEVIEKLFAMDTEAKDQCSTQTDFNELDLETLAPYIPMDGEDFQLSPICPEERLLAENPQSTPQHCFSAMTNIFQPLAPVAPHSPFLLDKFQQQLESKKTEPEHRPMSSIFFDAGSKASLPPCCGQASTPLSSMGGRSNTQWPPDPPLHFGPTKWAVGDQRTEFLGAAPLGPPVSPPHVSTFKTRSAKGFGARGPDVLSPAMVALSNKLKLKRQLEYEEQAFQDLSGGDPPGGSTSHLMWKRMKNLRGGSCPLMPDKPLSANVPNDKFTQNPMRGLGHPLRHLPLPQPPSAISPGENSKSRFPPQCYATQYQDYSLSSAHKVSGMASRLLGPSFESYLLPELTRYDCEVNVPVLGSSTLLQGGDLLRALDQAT

| Structure (SMILES) | pIC50 (Table 3, 20 hours incubation) | pIC50 (Table 1, 20 hours incubation) |
| --- | --- | --- |
| N#Cc1cc(F)cc2c1[C@@H](c1ccc(-c3cnc4ncccn34)c3c1CC(F)(F)[C@H]3O)CC[C@@H]2F [Example 233, (5S,8R)-8-[(1S)-2,2-difluoro-1-hydroxy-7-imidazo[1,2-a]pyrimidin-3-yl-1,3-dihydroinden-4-yl]-3,5-difluoro-5,6,7,8-tetrahydronaphthalene-1-carbonitrile] | 6.00 to 7.00 | – |
| N#Cc1cc(F)cc2c1[C@@H](c1ccc(-c3cccn4ccnc34)c3c1CC(F)(F)[C@H]3O)CC[C@@H]2F [Example 245, (5S,8R)-8-[(1S)-2,2-difluoro-1-hydroxy-7-{imidazo[1,2-a]pyridin-8-yl}-2,3-dihydro-1H-inden-4-yl]-3,5-difluoro-5,6,7,8-tetrahydronaphthalene-1-carbonitrile] | 6.00 to 7.00 | – |
| N#Cc1cc(F)cc2c1[C@@H](c1ccc(-c3cnc4cccnn34)c3c1CC(F)(F)[C@H]3O)CC[C@@H]2F [Example 237, (5S,8R)-8-[(1S)-2,2-difluoro-1-hydroxy-7-imidazo[1,2-b]pyridazin-3-yl-1,3-dihydroinden-4-yl]-3,5-difluoro-5,6,7,8-tetrahydronaphthalene-1-carbonitrile] | > 7.00 | – |
| Cc1ccc(-c2ccc([C@H]3CC[C@H](F)c4cc(F)cc(C#N)c43)c3c2[C@H](O)C(F)(F)C3)c(N)c1 [Example 195, (5S,8R)-8-[(1S)-7-(2-amino-4-methylphenyl)-2,2-difluoro-1-hydroxy-1,3-dihydroinden-4-yl]-3,5-difluoro-5,6,7,8-tetrahydronaphthalene-1-carbonitrile] | > 7.00 | – |
| N#Cc1cc(F)cc2c1[C@@H](c1ccc(-c3cccc4ncsc34)c3c1CC(F)(F)[C@H]3O)CC[C@@H]2F [Example 189, (5S,8R)-8-[(1S)-7-(1,3-benzothiazol-7-yl)-2,2-difluoro-1-hydroxy-1,3-dihydroinden-4-yl]-3,5-difluoro-5,6,7,8-tetrahydronaphthalene-1-carbonitrile] | > 7.00 | – |
| N#Cc1cc(F)cc2c1[C@@H](c1ccc(-c3cccnc3C#N)c3c1CC(F)(F)[C@H]3O)CC[C@@H]2F [Example 184, 3-[(3S)-7-[(1R,4S)-8-cyano-4,6-difluoro-1,2,3,4-tetrahydronaphthalen-1-yl]-2,2-difluoro-3-hydroxy-1,3-dihydroinden-4-yl]pyridine-2-carbonitrile] | > 7.00 | – |
| Cc1ccc(-c2ccc([C@H]3CC[C@H](F)c4cc(F)cc(C#N)c43)c3c2[C@H](O)C(F)(F)C3)c(N)n1 [Example 185, (5S,8R)-8-[(1S)-7-(2-amino-6-methylpyridin-3-yl)-2,2-difluoro-1-hydroxy-1,3-dihydroinden-4-yl]-3,5-difluoro-5,6,7,8-tetrahydronaphthalene-1-carbonitrile] | > 7.00 | – |
| N#Cc1cc(F)cc2c1[C@@H](c1ccc(-c3cccnc3)c3c1CC(F)(F)[C@H]3O)CC[C@@H]2F [Example 160, (5S,8R)-8-[(1S)-2,2-difluoro-1-hydroxy-7-pyridin-3-yl-1,3-dihydroinden-4-yl]-3,5-difluoro-5,6,7,8-tetrahydronaphthalene-1-carbonitrile] | > 7.00 | – |
| N#Cc1cc(F)cc2c1[C@@H](c1cc(F)c(Cl)c3c1CC(F)(F)[C@H]3O)CC[C@@H]2F [Example 207, (5S,8R)-8-[(1S)-7-chloro-2,2,6-trifluoro-1-hydroxy-1,3-dihydroinden-4-yl]-3,5-difluoro-5,6,7,8-tetrahydronaphthalene-1-carbonitrile] | > 7.00 | – |
| CS(=O)(=O)c1c(F)cc([C@H]2CC[C@H](F)c3cc(F)cc(C#N)c32)c2c1[C@H](O)[C@H](F)C2 [Example 211, (5S,8R)-8-[(1S,2R)-2,6-Difluoro-1-hydroxy-7-methylsulfonyl-2,3-dihydro-1H-inden-4-yl]-3,5-difluoro-5,6,7,8-tetrahydronaphthalene-1-carbonitrile] | > 7.00 | – |
| Cn1cc(-c2c(F)cc([C@H]3CC[C@H](F)c4cc(F)cc(C#N)c43)c3c2[C@H](O)C(F)(F)C3)nn1 [Example 202, (5S,8R)-3,5-Difluoro-8-[(1S)-2,2,6-trifluoro-1-hydroxy-7-(1-methyltriazol-4-yl)-1,3-dihydroinden-4-yl]-5,6,7,8-tetrahydronaphthalene-1-carbonitrile] | > 7.00 | – |
| Cc1nc(N)cnc1-c1ccc([C@H]2CC[C@H](F)c3cc(F)cc(C#N)c32)c2c1[C@H](O)C(F)(F)C2 [Example 179, (5S,8R)-8-[(1S)-7-(5-amino-3-methylpyrazin-2-yl)-2,2-difluoro-1-hydroxy-1,3-dihydroinden-4-yl]-3,5-difluoro-5,6,7,8-tetrahydronaphthalene-1-carbonitrile] | > 7.00 | – |
| Cc1ncc(-c2ccc([C@H]3CC[C@H](F)c4cc(F)cc(C#N)c43)c3c2[C@H](O)C(F)(F)C3)n1C [Example 236, (5S,8R)-8-[(1S)-7-(2,3-dimethylimidazol-4-yl)-2,2-difluoro-1-hydroxy-1,3-dihydroinden-4-yl]-3,5-difluoro-5,6,7,8-tetrahydronaphthalene-1-carbonitrile] | > 7.00 | – |
| O=[N+]([O-])c1cc(S(=O)(=O)C(F)(F)F)ccc1N1CCCc2ccc(C(F)F)cc21 [Example 67] | – | < 6.00 |
| Cc1ccccc1-c1ccc([C@H]2CC[C@H](F)c3cc(F)cc(C#N)c32)c2c1[C@H](O)C(F)(F)C2 [Example 144, (5S,8R)-8-[(1S)-2,2-difluoro-1-hydroxy-7-(2-methylphenyl)-2,3-dihydro-1H-inden-4-yl]-3,5-difluoro-5,6,7,8-tetrahydronaphthalene-1-carbonitrile] | > 7.00 | – |
| N#Cc1cc(F)cc2c1[C@@H](c1ccc(Cl)c3c1CC(F)(F)[C@H]3O)C[C@H](F)[C@@H]2F [Example 219, (5R,6S,8R)-8-[(1S)-7-chloro-2,2-difluoro-1-hydroxy-2,3-dihydro-1H-inden-4-yl]-3,5,6-trifluoro-5,6,7,8-tetrahydronaphthalene-1-carbonitrile] | > 7.00 | – |
| Cn1cnc(-c2ccc([C@H]3CC[C@H](F)c4cc(F)cc(C#N)c43)c3c2[C@H](O)C(F)(F)C3)n1 [Example 182, (5S,8R)-8-[(1S)-2,2-difluoro-1-hydroxy-7-(1-methyl-1,2,4-triazol-3-yl)-1,3-dihydroinden-4-yl]-3,5-difluoro-5,6,7,8-tetrahydronaphthalene-1-carbonitrile] | 6.00 to 7.00 | – |
| N#Cc1cc(F)cc2c1[C@@H](c1ccc(-n3ccnc3)c3c1CC(F)(F)[C@H]3O)CC[C@@H]2F [Example 199, (5S,8R)-8-[(1S)-2,2-difluoro-1-hydroxy-7-imidazol-1-yl-1,3-dihydroinden-4-yl]-3,5-difluoro-5,6,7,8-tetrahydronaphthalene-1-carbonitrile] | > 7.00 | – |
| CS(=O)(=O)c1c(N)cc([C@H]2CC[C@H](F)c3cc(F)cc(C#N)c32)c2c1[C@H](O)[C@H](F)C2 [Example 212, (5S,8R)-8-[(1S,2R)-6-amino-2-fluoro-1-hydroxy-7-methylsulfonyl-2,3-dihydro-1H-inden-4-yl]-3,5-difluoro-5,6,7,8-tetrahydronaphthalene-1-carbonitrile] | > 7.00 | – |
| N#Cc1cc(F)cc2c1[C@@H](c1ccc(-c3cnc4c(N)cccn34)c3c1CC(F)(F)[C@H]3O)CC[C@@H]2F [Example 230, (5S,8R)-8-[(1S)-7-(8-aminoimidazo[1,2-a]pyridin-3-yl)-2,2-difluoro-1-hydroxy-1,3-dihydroinden-4-yl]-3,5-difluoro-5,6,7,8-tetrahydronaphthalene-1-carbonitrile] | > 7.00 | – |
| Cn1cc(-c2ccc([C@H]3CC[C@H](F)c4cc(F)cc(C#N)c43)c3c2[C@H](O)C(F)(F)C3)cn1 [Example 150, (5S,8R)-8-[(1S)-2,2-difluoro-1-hydroxy-7-(1-methylpyrazol-4-yl)-1,3-dihydroinden-4-yl]-3,5-difluoro-5,6,7,8-tetrahydronaphthalene-1-carbonitrile] | 6.00 to 7.00 | – |
| Cc1cccnc1-c1ccc([C@H]2CC[C@H](F)c3cc(F)cc(C#N)c32)c2c1[C@H](O)C(F)(F)C2 [Example 244, (5S,8R)-8-[(1S)-2,2-difluoro-1-hydroxy-7-(3-methylpyridin-2-yl)-2,3-dihydro-1H-inden-4-yl]-3,5-difluoro-5,6,7,8-tetrahydronaphthalene-1-carbonitrile] | > 7.00 | – |
| N#Cc1cc(F)cc2c1[C@@H](c1ccc(-c3ccc(F)cc3N)c3c1CC(F)(F)[C@H]3O)CC[C@@H]2F [Example 194, (5S,8R)-8-[(1S)-7-(2-amino-4-fluorophenyl)-2,2-difluoro-1-hydroxy-1,3-dihydroinden-4-yl]-3,5-difluoro-5,6,7,8-tetrahydronaphthalene-1-carbonitrile] | > 7.00 | – |
| Cc1c(C#N)cccc1-c1ccc([C@H]2CC[C@H](F)c3cc(F)cc(C#N)c32)c2c1[C@H](O)C(F)(F)C2 [Example 155, (5S,8R)-8-[(1S)-7-(3-cyano-2-methylphenyl)-2,2-difluoro-1-hydroxy-1,3-dihydroinden-4-yl]-3,5-difluoro-5,6,7,8-tetrahydronaphthalene-1-carbonitrile] | > 7.00 | – |
